Reference: patent US20230406821A1, “STRIGOLACTONE DERIVATIVES” (Plant Response, Inc., priority 2017, published 2023)

Legend:
Format in all cases: in vivo, Arabidopsis thaliana
[1] = tested on: A. thaliana Columbia (Col-0); assay: Root hair elongation on phosphate limiting media; details: in DMSO (0.1%), images after seven days, vs DMSO (FIG. 3)
Description: FIG. 3 is a boxplot representing the maximum root hair length in the root apical zone of A. thaliana treated with the control solvent DMSO, strigolactone molecule MBS-127 in DMSO, and strigolactone molecule MBS-128 in DMSO. Stars indicate significant differences relative to the DMSO control (*: adjusted p-value <0.01; p-values adjusted for multiple-hypothesis testing); non-parametric Mann-Whitney U-tests were used to assess significance. Representative images show root hairs in the root apical zone of plants treated with the control solvent DMSO, the strigolactone molecule MBS-127 in DMSO, and the strigolactone molecule MBS-128 in DMSO. Scale bars equal 1 mm. […]
In this experiment sterilized seeds of the A. thaliana Columbia (Col-0) ecotype were planted on growth media (Murashige and Skoog (MS) M404 with vitamins (2.2 g/L), 0.5% sucrose, 0.05% IVIES hydrate, 0.6% PhytoBlend™) and grown for nine days. […] The longest root hair, within the root apical zone, was measured from the images using ImageJ. […]

[2] = tested on: A. thaliana Columbia (Col-0) seedlings; assay: Desiccation stress survival assay of seedlings; details: 50 μM in media, 0.4% DMSO, three days, 4 hours desiccation, seven days recovery (FIG. 5)
Description: Post germination desiccation is an extreme form of dehydration which can be used as a survival assay for testing abiotic stress tolerance in plants. While desiccation stress is distinct from the gradual onset of drought typically experienced in an agricultural setting, the response in the plant has many commonalities across both cases (Fernando, V. C., & Schroeder, D. F. “Role of ABA in Arabidopsis Salt, Drought, and Desiccation Tolerance,” (2016), pp. 507-518), and increased tolerance in one case can often predict tolerance in the other.
In this experiment sterilized and stratified seeds of the A. thaliana Columbia (Col-0) were planted on growth media (Murashige and Skoog (MS) M404 with vitamins (2.2 g/L), 0.5% sucrose, 0.05% IVIES hydrate, 0.6% PhytoBlend™) and grown for nine days in a growth chamber with continuous light at 22° C. The seedlings were then transplanted to same media supplemented with the control solvent DMSO, strigolactone molecule MBS-127 in DMSO, or strigolactone molecule MBS-128 in DMSO. The final concentration of DMSO in the media was 0.4% and the concentration of MBS-127 and MBS-128 was 50 μM. After three days of growth on the treatment media the seedlings were photographed and then transplanted to dry filter paper and subjected to 4 hours of desiccation stress. […]

BRANCHED1 (BRC1) gene = assay: BRC1 gene expression by RT-PCR in sprayed seedlings; details: Col-0 seedlings, foliar spray, 0.4% DMSO, shoots harvested 24 hours later; similarly to GR24 (FIG. 2)
Description: FIG. 2 is a boxplot representing Ct value distributions of BRC1 relative to constitutive control Ct values plotted as ΔCt. Due to the non-normal distribution of the BRC1 data, non-parametric Mann-Whitney U-tests were used to assess statistical significance. Stars indicate significant differences relative to the DMSO control (**: adjustedp-value <0.001; *: adjusted p-value <0.01; p-values adjusted for multiple-hypothesis testing with the Bonferroni correction). […]
Another experiment was performed to consider an aspect of molecular signal transduction. A number of genes in Arabidopsis thaliana are well known downstream signaling targets of the native strigolactone pathway. […]
In this experiment sterilized and stratified seeds of the A. thaliana Columbia (Col-0) were planted on growth media (Murashige and Skoog (MS) M404 with vitamins (2.2 g/L), 0.5% sucrose, 0.05% IVIES hydrate, 0.6% PhytoBlend™) for eight days in a growth chamber under 16 hours of light per day at 22° C. and 19° C. nights. […] Total RNA was extracted and RT-PCR quantification was performed using kits from Macherey-Nagel and Bioline and an ABI 7900HT instrument. […]

Row | SMILES | root hair elongation and proliferation (maximum root hair length in the root apical zone) [1] | survival and vigor of seedlings exposed to severe desiccation stress [2] | expression of the BRC1 gene (ΔCt) (BRANCHED1 (BRC1) gene)
1 | COC(=O)/C=C/OC1(C)C=C(C)C(=O)O1 (stereo not drawn) [MBS-128, methyl (E)-3-((2,4-dimethyl-5-oxo-2,5-dihydrofuran-2-yl)oxy)acrylate] | enhance root hair elongation and proliferation | increase the survival and vigor | induced expression of the BRC1 gene
2 | COC(=O)/C=C/OC1C=C(C)C(=O)O1 (stereo not drawn) [MBS-127, 3-(4-Methyl-5-oxo-2,5-dihydro-furan-2-yloxy)-acrylic acid methyl ester] | enhance root hair elongation and proliferation | increase the survival and vigor | induced expression of the BRC1 gene
